# Results: US20050142581A1, “Microrna as ligands and target molecules” (priority 2003, published 2005)
# Oligonucleotides are written 5' to 3', each unit as a sugar letter and its base; * is a phosphorothioate linkage, no mark a phosphodiester; rarer units and linkages stand in square brackets, end groups in braces. Plain capitals give the bases only. e = 2'-O-(2-methoxyethyl) (MOE); [5mC] = 5-methylcytosine; d = 2'-deoxy (DNA)
# System: human CD40 mRNA
# Experiment: Inhibition of CD40 mRNA levels by oligonucleotides (real-time RT-PCR)
# Assay type: cell-based
# Parameters: concentration or dose not given beside the values
# Conditions: 2'-MOE gapmers, 18 nucleotides, phosphorothioate throughout; averaged from three experiments
# Outline: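 Cells at ~80% confluency were transfected with oligonucleotide at 150 nM final using Lipofectin 3.75 μg/ml for 4 h and harvested 16 h after treatment. Poly(A)+ mRNA was taken for TaqMan real-time RT-PCR of CD40, and percent inhibition was derived from a standard curve of untreated control mRNA.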
row,Substance,% Inhibition (Inhibition of CD40 mRNA Levels by Chimeric Phosphorothioate Oligonucleotides) [%]
1,19273 (eT*e[5mC]*eA*eG*dC*dC*dG*dA*dT*dC*dC*dT*dG*dG*eG*eG*eA*e[5mC]; antisense) [compound 19273],0.00
2,19274 (e[5mC]*eA*e[5mC]*e[5mC]*dA*dC*dC*dA*dG*dG*dG*dC*dT*dC*eT*e[5mC]*eA*eG; antisense) [compound 19274],23.08
3,19275 (eG*eG*eG*eA*dT*dC*dA*dC*dC*dA*dC*dC*dA*dG*eG*eG*e[5mC]*eT; antisense) [compound 19275],57.94
4,19276 (eG*eA*eG*eG*dA*dT*dG*dG*dC*dA*dA*dA*dC*dA*eG*eG*eA*eT; antisense) [compound 19276],49.14
5,19277 (eA*e[5mC]*e[5mC]*eA*dG*dC*dA*dC*dC*dA*dA*dG*dA*dG*eG*eA*eT*eG; antisense) [compound 19277],3.48
6,19278 (eT*eT*eT*eT*dG*dA*dT*dA*dA*dA*dG*dA*dC*dC*eA*eG*e[5mC]*eA; antisense) [compound 19278],30.58
7,19279 (eT*eA*eT*eT*dG*dG*dT*dT*dG*dG*dC*dT*dT*dC*eT*eT*eG*eG; antisense) [compound 19279],49.26
8,19280 (eG*eG*eG*eT*dT*dC*dC*dT*dG*dC*dT*dT*dG*dG*eG*eG*eT*eG; antisense) [compound 19280],13.95
9,19281 (eG*eT*e[5mC]*eG*dG*dG*dA*dA*dA*dA*dT*dT*dG*dA*eT*e[5mC]*eT*e[5mC]; antisense) [compound 19281],54.78
10,19282 (eG*eA*eT*e[5mC]*dG*dT*dC*dG*dG*dG*dA*dA*dA*dA*eT*eT*eG*eA; antisense) [compound 19282],0.00
11,19283 (eG*eG*eA*eG*dC*dC*dA*dG*dG*dA*dA*dG*dA*dT*e[5mC]*eG*eT*e[5mC]; antisense) [compound 19283],69.47
12,19284 (eT*eG*eG*eA*dG*dC*dC*dA*dG*dG*dA*dA*dG*dA*eT*e[5mC]*eG*eT; antisense) [compound 19284],54.48
13,19285 (eT*eG*eG*eA*dG*dC*dA*dG*dC*dA*dG*dT*dG*dT*eT*eG*eG*eA; antisense) [compound 19285],15.17
14,19286 (eG*eT*eA*eA*dA*dG*dT*dC*dT*dC*dC*dT*dG*dC*eA*e[5mC]*eT*eG; antisense) [compound 19286],30.62
15,19288 (e[5mC]*eG*eG*eT*dT*dG*dG*dC*dA*dT*dC*dC*dA*dT*eG*eT*eA*eA; antisense) [compound 19288],34.49
16,19289 (e[5mC]*eT*e[5mC]*eT*dT*dT*dG*dC*dC*dA*dT*dC*dC*dT*e[5mC]*e[5mC]*eT*eG; antisense) [compound 19289],41.84
17,19290 (e[5mC]*eT*eG*eT*dC*dT*dC*dT*dC*dC*dT*dG*dC*dA*e[5mC]*eT*eG*eA; antisense) [compound 19290],25.68
18,19291 (eG*eG*eT*eG*dC*dA*dG*dC*dC*dT*dC*dA*dC*dT*eG*eT*e[5mC]*eT; antisense) [compound 19291],76.27
19,19292 (eA*eA*e[5mC]*eT*dG*dC*dC*dT*dG*dT*dT*dT*dG*dC*e[5mC]*e[5mC]*eA*e[5mC]; antisense) [compound 19292],63.34
20,19293 (e[5mC]*eT*eT*e[5mC]*dT*dG*dC*dC*dT*dG*dC*dA*dC*dC*e[5mC]*e[5mC]*eT*eG; antisense) [compound 19293],0.00
21,19294 (eA*e[5mC]*eT*eG*dA*dC*dT*dG*dG*dG*dC*dA*dT*dA*eG*e[5mC]*eT*e[5mC]; antisense) [compound 19294],11.55
